Measurements taken from patent US20220073521A1, “PYRIMIDINE AND FIVE-MEMBERED NITROGEN HETEROCYCLE DERIVATIVE, PREPARATION METHOD THEREFOR, AND MEDICAL USES THEREOF” (Tuojie Biotech (Shanghai) Co., Ltd., priority 2018, published 2022).
Where two headings read alike, the source gives them in different places.

What was measured:
hERG potassium channel = biological target: T1, hERG potassium channel (Homo sapiens, UniProt Q12809); assay: hERG current inhibition experiment (manual patch clamp, CHO hERG cells); type: cell-based; settings: whole-cell patch clamp, tail current
T1 construct: host or cells: CHO hERG cells
T1 sequence (Q12809 whole entry): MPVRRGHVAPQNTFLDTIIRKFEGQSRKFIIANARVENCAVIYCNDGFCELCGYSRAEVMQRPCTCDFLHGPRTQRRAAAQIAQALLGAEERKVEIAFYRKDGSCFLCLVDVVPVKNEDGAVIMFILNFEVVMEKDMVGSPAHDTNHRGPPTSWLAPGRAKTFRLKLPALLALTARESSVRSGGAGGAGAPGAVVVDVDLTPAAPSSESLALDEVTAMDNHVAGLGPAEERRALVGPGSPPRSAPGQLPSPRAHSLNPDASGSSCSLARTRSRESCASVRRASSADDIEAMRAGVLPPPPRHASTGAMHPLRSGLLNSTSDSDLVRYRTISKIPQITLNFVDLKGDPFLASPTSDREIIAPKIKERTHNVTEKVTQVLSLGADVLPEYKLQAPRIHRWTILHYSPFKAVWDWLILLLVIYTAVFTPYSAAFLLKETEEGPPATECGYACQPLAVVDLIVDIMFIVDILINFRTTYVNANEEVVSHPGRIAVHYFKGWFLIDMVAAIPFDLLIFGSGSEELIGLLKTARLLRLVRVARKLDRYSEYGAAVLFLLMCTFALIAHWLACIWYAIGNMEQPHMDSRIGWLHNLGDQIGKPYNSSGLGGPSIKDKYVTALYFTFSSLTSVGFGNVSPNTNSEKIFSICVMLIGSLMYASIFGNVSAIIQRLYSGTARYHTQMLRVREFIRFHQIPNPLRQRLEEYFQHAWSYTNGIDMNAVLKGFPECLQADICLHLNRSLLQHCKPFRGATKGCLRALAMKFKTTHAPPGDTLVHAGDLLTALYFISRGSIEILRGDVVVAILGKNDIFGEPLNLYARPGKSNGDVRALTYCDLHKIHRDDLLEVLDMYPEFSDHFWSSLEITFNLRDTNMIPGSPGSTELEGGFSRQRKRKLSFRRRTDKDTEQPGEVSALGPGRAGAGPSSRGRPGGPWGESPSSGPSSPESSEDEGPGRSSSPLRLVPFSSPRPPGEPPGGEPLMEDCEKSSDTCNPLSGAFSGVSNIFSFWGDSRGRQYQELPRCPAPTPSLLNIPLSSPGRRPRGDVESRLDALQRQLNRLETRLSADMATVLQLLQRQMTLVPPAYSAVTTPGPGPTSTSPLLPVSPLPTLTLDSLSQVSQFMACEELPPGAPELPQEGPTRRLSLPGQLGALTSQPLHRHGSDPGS
Protocol: In this experiment, whole-cell current recording was performed using a manual patch clamp system (HEKA EPC-10 signal amplification and digital conversion system, purchased from HEKA Electronic, Germany). The round glass slide of which surface CHO hERG cells (provided by Sophion Bioscience Inc., Denmark, the cell generation number was P21) were grown on was placed in an electrophysiological recording slot under an inverted microscope. The recording slot was continuously perfused with extracellular fluid (approximately 1 mL per minute). Conventional whole-cell patch clamp current recording technique was used in the experiment. The experiments were performed at normal room temperature (˜25° C.). The cells were clamped at a voltage of −80 mV. Cell patch clamp voltage was depolarized to +20 mV to activate hERG potassium channel, and to −50 mV after 5 seconds to eliminate inactivation and generate tail currents. The tail current peak was used as a value of hERG current. When the hERG potassium current recorded in the above steps became steady under continuous perfusion of the extracellular fluid in the recording slot, the drug to be tested could be added to the perfusion, until the inhibition effect of the drug on hERG current reached a steady state. Generally, the overlapping of most recent three consecutive current recording lines was used as a criterion to determine whether the state was stable. After reaching the steady state, the recording slot was perfused with extracellular fluid until the hERG current returned to the value before the drug adding. The test data was analyzed by HEKA Patchmaster (V2x73.2), Microsoft Excel and the data analysis software provided by Graphpad Prism 5.0.

[1] = biological target: T2, SHP2 wild-type phosphatase (recombinantly expressed full-length SHP2, aa 1-593) (Homo sapiens, UniProt Q06124); assay: In vitro activity on SHP2 wild-type phosphatase (DiFMUP fluorescence); settings: wild-type full-length SHP2, activated polypeptide IRS1 0.5 nM, DiFMUP 30 μM;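 note: enzyme preincubated at room temperature, then DiFMUP reaction run at room temperature and halted with SDS, potency derived from a logistic curve fit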
T2 sequence (Q06124 1-593): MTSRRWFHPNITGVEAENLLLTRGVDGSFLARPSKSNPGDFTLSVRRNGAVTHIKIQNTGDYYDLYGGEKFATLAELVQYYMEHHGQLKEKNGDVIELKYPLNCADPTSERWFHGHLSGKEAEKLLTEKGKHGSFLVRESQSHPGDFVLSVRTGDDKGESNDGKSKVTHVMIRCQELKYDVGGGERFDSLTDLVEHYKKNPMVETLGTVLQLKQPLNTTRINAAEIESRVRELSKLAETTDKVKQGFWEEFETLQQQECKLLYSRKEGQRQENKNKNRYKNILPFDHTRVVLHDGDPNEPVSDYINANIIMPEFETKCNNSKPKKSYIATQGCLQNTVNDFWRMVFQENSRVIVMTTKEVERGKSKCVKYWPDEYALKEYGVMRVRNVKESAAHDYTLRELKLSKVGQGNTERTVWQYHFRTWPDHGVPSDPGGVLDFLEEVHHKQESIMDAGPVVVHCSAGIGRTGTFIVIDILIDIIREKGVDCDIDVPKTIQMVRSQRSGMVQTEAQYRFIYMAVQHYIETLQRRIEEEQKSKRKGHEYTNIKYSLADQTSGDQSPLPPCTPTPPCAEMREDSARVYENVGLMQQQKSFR
Protocol: 0.2 nM recombinantly expressed full-length SHP2 (aa 1-593), 0.5 nM activated polypeptide IRS1 with double phosphorylation sites (sequence: H2N-LN(pY)IDLDLY(dPEG8)LST(pY)ASINFQK-amide) and a series of concentrations of the test compound (final concentrations were 1 μM, 0.3 μM, 0.1 μM, 0.03 μM, 0.01 μM, 0.003 μM, 0.001 μM, 0.0003 μM, 0.0001 μM, 0.00003 μM) were added to the phosphatase reaction solution (60 mM HEPES, pH 7.5 0.005% Brij-35, 75 mM NaCl, 75 mM KCl, 1 mM EDTA, 5 mM DTT). The reaction solution was shaked (350 rpm) at room temperature for 30 minutes. The reaction substrate DiFMUP with a final concentration of 30 μM was added, and the reaction solution was reacted at room temperature for 30 minutes. The phosphatase reaction was stopped by adding 5 μL of stop solution (60 mM HEPES, pH 7.5, 0.2% SDS). Ex358 nm/Em455 fluorescence value was read on the fluorescence plate reader MD SpectraMax.
The IC50 value of the compound was calculated using the four-parameter logit method. In the following formula, x represents the logarithmic form of the compound concentration, and F(x) represents the effect value (the inhibition rate of cell proliferation under the given concentration condition): F(x)=((A−D)/(1+((x/C)^B)))+D. A, B, C and D are four parameters. Different concentrations correspond to different inhibition rates, based on which an inverse curve was plotted, and the IC50 of the inhibitor was calculated from the curve. The IC50 of the compound was calculated with Primer premier 6.0.

p-ERK in KYSE-520 cells = assay: Determination of p-ERK in KYSE-520 cells (HTRF); type: cell-based; settings: Homo sapiens, KYSE-520, 2 h
Protocol: KYSE-520 cells (Nanjing Cobioer Biosciences CO., Ltd.) in the logarithmic growth phase were inoculated (30,000 cells/well) in 1640 medium containing 10% of FBS, and adhered in a 96-well plate overnight (5% CO2, 37° C.). […] The cell culture was stopped with cell lysate. The level of phosphorylated ERK in KYSE-520 cells was determined by a method based on homogeneous time-resolved fluorescence HTRF (Cisbio, 64ERKPEG). The fluorescence values (Ex337 nm/Em625/665 nm) were read on the compatible HTRF reader (MD SpectraMax).

KYSE-520 cells = assay: KYSE-520 cell proliferation experiment (CellTiter-Glo, 7 days); type: cell-based; settings: Homo sapiens
Protocol: The treated cell plate was incubated at 37° C., 5% CO2 for 7 days. CellTiter-Glo (Promega, G7573) was used to determine the number of viable cells in each well of the treated plate. 100 μL of the detection reagent was added to each well, and the plate was incubated at room temperature for 10 minutes. Then, the […] in each well was measured with Envision plate reader (PerkinElmer). […] The IC50 value was further calculated as the compound concentration required for 50% proliferation inhibition in the best-fit curve with […].

[2] = Pharmacokinetics assay in rats; type: in vivo, SD rats; settings: rat; for AUC / clearance / half-life / bioavailability / Cmax: male, SD, plasma; for AUC: read-out: Area under curve AUC; for clearance: read-out: Clearance CL_obs; for half-life: read-out: Half-life T1/2 (converted); for bioavailability: PO 5 mg/kg vs IV 1 mg/kg, read-out: Bioavailability F; for Cmax: read-out: Maximum plasma concentration Cmax
Protocol: Rats were used as test animals. The drug concentration in plasma at different time points was determined by LC/MS/MS method after intravenous administration or intragastrical administration of the compound of the present invention to rats. The pharmacokinetic behavior of the compound of the present invention was studied and evaluated in rats.
The atropisomer with a RT of 1.495 minutes in Examples 3 and 4, compounds of Example 17, Example 41 and Example 43.
Healthy male SD rats (6-8 weeks old), 3 rats per group.
Intravenous administration: A certain amount of the test compound was weighed, to which 10% by volume of N,N-dimethylacetamide, 33% by volume of triethylene glycol and 57% by volume of water were added to prepare a 1 mg/mL colorless, clear and transparent solution;
Intragastrical administration: A certain amount of the test compound was weighed, to which 0.5% by mass of hypromellose, 0.1% by volume of Tween 80 and 99.4% by volume of water were added to prepare a 1 mg/mL white suspension.
After an overnight fast, the SD rats were intravenously administered the test compound at an administration dose of 1 mg/kg, or intragastrically administered the test compound at an administration dose of 5 mg/kg.
(§1) The rats were intravenously administered the compound of the present invention. 0.2 ml of blood was taken from the jugular vein at 0.083, 0.25, 0.5, 1, 2, 4, 8 and 24 hours after the administration. The samples were placed in tubes containing EDTA-K2, and centrifuged at 4000 rpm and 4° C. for 5 minutes to separate the blood plasma. The plasma samples were stored at −75° C.
as §1, with “Or, the rats” for “The rats”, “were intragastrically” for “were intravenously”, “at” for “at 0.083,”
The content of the test compound in the plasma of rat after intragastrical administration of the test compound at different concentrations was determined: 50 μL of rat plasma at each time after administration was taken, to which 200 μL of a solution (50 ng/mL) of internal standard dexamethasone in acetonitrile was added. The plasma was vortex-mixed for 30 seconds, and centrifuged at 4700 rpm and 4° C. for 15 minutes. The supernatant was taken from the plasma samples, and a three-fold dilution was carried out by adding water. 2.0 μL of the supernatant was used for LC/MS/MS analysis.

Structure (SMILES) | IC50 (hERG potassium channel) [nM] | IC50 [1] [nM] | IC50 (p-ERK in KYSE-520 cells) [nM] | IC50 (KYSE-520 cells) [nM] | AUC ([2]; IV 1 mg/kg) [ng·h/mL] | clearance ([2]; IV 1 mg/kg) [mL/min/kg] | half-life ([2]; IV 1 mg/kg) [h] | bioavailability [2] [%] | AUC ([2]; PO 5 mg/kg) [ng·h/mL] | half-life ([2]; PO 5 mg/kg) [h] | Cmax ([2]; PO 5 mg/kg) [ng/mL] | Apparent distribution volume Vss_obs ([2]; IV 1 mg/kg) [L/kg]
Cc1nc(N2CCC3(CCC[C@H]3N)CC2)n2ccnc2c1-c1cccc(Cl)c1Cl [Example 1, (R)-8-(8-(2,3-Dichlorophenyl)-7-methylimidazo[1,2-c]pyrimidin-5-yl)-8-azaspiro[4.5]decan-1-amine] | 2130 | 4.5 | 383 | 723 |  |  |  |  |  |  |  | 
Cc1nc(N2CCC3(CC2)CO[C@@H](C)[C@H]3N)n2ccnc2c1-c1cccc(Cl)c1Cl (single isomer, unassigned) [The atropisomer with a RT of 1.495 minutes in Examples 3 and 4] |  | 0.7 | 39 | 126 | 3130 ± 300 | 5.13 ± 0.59 | 5.5 ± 0.59 | 82.6 ± 17.8 | 12500 ± 2470 | 6.18 ± 0.61 | 1220 ± 220 | 2.03 ± 0.15
C[C@@H]1OCC2(CCN(c3nc(N)c(Sc4cccnc4C(F)(F)F)c4nccn34)CC2)[C@@H]1N [Example 24, (3S,4S)-8-(7-Amino-8-((2-(trifluoromethyl)pyridin-3-yl)thio)imidazo[1,2-c]pyrimidin-5-yl)-3-methyl-2-oxa-8-azaspiro[4.5]decan-4-amine] | > 30000 | 4.4 | 11 | 75.9 |  |  |  |  |  |  |  | 
Cc1nc(N2CCC3(CC2)Cc2ncccc2[C@H]3N)n2ccnc2c1Sc1ccnc(N)c1Cl [Example 42, (S)-1′-(8-((2-Amino-3-chloropyridin-4-yl)thio)-7-methylimidazo[1,2-c]pyrimidin-5-yl)-5,7-dihydrospiro[cyclopenta[b]pyridine-6,4′-piperidin]-5-amine] | > 30000 | 1.9 | 20.2 | 65.1 |  |  |  |  |  |  |  | 
Cc1nc(N2CCC3(CC2)CO[C@@H](C)[C@H]3N)n2cnnc2c1-c1cccc(Cl)c1Cl [Example 9, (3S,4S)-8-(8-(2,3-Dichlorophenyl)-7-methyl-[1,2,4]triazolo[4,3-c]pyrimidin-5-yl)-3-methyl-2-oxa-8-azaspiro[4.5]decan-4-amine] | 1910 | 3.2 | 285 | 785 |  |  |  |  |  |  |  | 
Cc1nc(N2CCC3(CC2)CO[C@@H](C)[C@H]3N)n2ccnc2c1-c1cccc(Cl)c1Cl [Example 2, (3S,4S)-8-(8-(2,3-Dichlorophenyl)-7-methylimidazo[1,2-c]pyrimidin-5-yl)-3-methyl-2-oxa-8-azaspiro[4.5]decan-4-amine] | 2610 | 1.1 | 40.5 | 186 |  |  |  |  |  |  |  | 
N[C@@H]1c2cccnc2CC12CCN(c1ncc(Sc3ccnc(NC4CC4)c3Cl)c3nccn13)CC2 [Example 36, (S)-1′-(8-((3-Chloro-2-(cyclopropylamino)pyridin-4-yl)thio)imidazo[1,2-c]pyrimidin-5-yl)-5,7-dihydrospiro[cyclopenta[b]pyridine-6,4′-piperidin]-5-amine] | 3970 | 2.6 | 8 | 40.5 |  |  |  |  |  |  |  | 
C[C@@H]1OCC2(CCN(c3ncc(Sc4cccnc4C(F)(F)F)c4nccn34)CC2)[C@@H]1N [Example 17, (3S,4S)-3-Methyl-8-(8-((2-(trifluoromethyl)pyridin-3-yl)thio)imidazo[1,2-c]pyrimidin-5-yl)-2-oxa-8-azaspiro[4.5]decan-4-amine] | 12300 | 4.2 | 32.3 | 179 | 764 ± 196 | 21.5 ± 5.2 | 2.83 ± 0.93 | 80.3 ± 8.5 | 3210 ± 351 | 3.42 ± 0.37 | 408 ± 77 | 3.8 ± 0.1
